One data set has as its system S. aureus K147. Type of data set: cell-based, Staphylococcus aureus. The method, boiled down: (§1)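 MIC read-out, μg/ml, lowest peptide concentration with no growth after overnight incubation at 37 °C in LB liquid broth. Inoculum 5×10^5 CFU/mL from overnight cultures. Therapeutic index = concentration giving complete blood-cell lysis at 4 h divided by MIC.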
In a further data set the test system is S. aureus SAP0017. The data set is classed as cell-based, Staphylococcus aureus. The method, boiled down: as §1
The test system of another data set is E. coli SC9251. The data set is described as follows: MIC, liquid-broth microtitre dilution. The data set is classed as cell-based, Escherichia coli. Conditions: unit from Table 10. The source says:
(§2) The following bacterial strains were utilized: Escherichia coli UB1005 (wt) and its antibiotic supersusceptible derivative DC2 (Clark, 1984); Excherichia coli SC9251 and its polymixin B rasistant mutant pmrA SC9252 (Peterson, et al., 1987) Pseudomonas aeruginosa H187 (wt) (Angus, et al., 1987) and its antibiotic-sensitive derivative H188 (Zimmerman, W, Antimicrob. Agents Chemother. 18: 94-100, 1980); methicillin sensitive Staphylococcus aureus K147 (Kreiswirth, et al., 1983); Staphylococcus aureus SAP0017, a methicillin resistant clinical isolate from Dr. A. Chow (University of British Columia); Bacillus subtilis, an environmental wt lab strain. Enterococcus faecalis are ATCC 29212 cells and Staphylococcus epidermidis was a clinical isolate from Dr. D. Speert (University of British Columbia). Antifungal activity was tested using a clinical lab isolate of Candida albicans. Salmonella typhinurium C57 and C610 (Fields, P.I., et al., Science 243: 1059-1062 (1989) Corynebacterium xerosis was an environmental isolate (University of British Columbia).
(§3) It is now apparent that agar-based assays severely underestimate antifungal activity as well as activity against gram negative microorganisms (Kondejewski, et al., 1996). Consequently, in the studies reported herein, a liquid-broth method was used to measure the antibiotic properties of the peptides. […] Briefly, cells were grown overnight at 37° C. in LB and diluted in the same medium. Serial dilutions of antibiotics were added to the microtitre plates in a volume of 100 μL followed by 10 μL of bacteria to give a final inoculum of 5×10^5 CFU/mL. Plates were incubated at 37° C. overnight and MICs determined as the lowest antibiotic concentration that inhibited growth.

Another data set concerns E. coli SC9252. The data set is described as follows: MIC, liquid-broth microtitre dilution. Type of data set: cell-based, Escherichia coli. The conditions noted are these: unit from Table 10.
Text: as §2, §3

The subject of another data set is E. coli UB1005. The data set is classed as cell-based, Escherichia coli. Conditions: for Antibiotic activity (Table 11, ring analogs): E. coli UB1005, unit from Table 10. The method, boiled down: (§4)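 Antimicrobial activity is measured by a liquid-broth assay in LB at 37 °C overnight, starting from 5×10^5 CFU/mL. Values are minimal inhibitory concentrations, i.e. the lowest concentration that stops growth.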

The nature of data set [1]: Displacement of dansyl-polymyxin from LPS. Type of data set: binding, P. aeruginosa. The method, boiled down:
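Peptides titrated into 3 μg/mL P. aeruginosa LPS with 2.5 μM dansyl-polymyxin (~90% site saturation) in 5 mM sodium HEPES, pH 7.0; fluorescence decrease recorded. I50 (50% probe displacement) taken from the x-intercept of a double-reciprocal plot of percent inhibition versus inhibitor concentration.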

For another data set, the system named is B. subtilis. The data set is classed as cell-based, Bacillus subtilis. The method, boiled down:
(§5)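 Liquid-broth microdilution: overnight LB cultures diluted and added to serial peptide dilutions at final 5×10^5 CFU/mL, incubated overnight at 37 °C. MIC is the lowest concentration inhibiting growth; C. albicans a clinical isolate, S. epidermidis clinical, C. xerosis environmental.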

The test system of another data set is P. aeruginosa H188. The data set is classed as cell-based, Pseudomonas aeruginosa. Conditions: for Antibiotic activity (Table 11, ring analogs): P. aeruginosa H188, unit from Table 10. In outline: as §4
The next data set deals with C. xeroses. Type of data set: cell-based, Corynebacterium xerosis. The method, boiled down:
as §5

The next data set relates to Acholeplasma laidlawii. Type of data set: cell-based. From the text:
According to another feature of the invention, GS14, which is apparently an unlikely antibacterial agent, is useful against mycoplasma infection. […] One use of such a compound is inclusion in tissue culture media, where mycoplasma contamination can pose serious problems in industrial applications of cell culture. […] Such concentrations can be determined according to standard methods known in the art.

A further data set relates to P. aeruginosa H187. Type of data set: cell-based, Pseudomonas aeruginosa. Conditions: for Antibiotic activity (Table 11, ring analogs): P. aeruginosa H187, unit from Table 10. The method, boiled down:
(§6)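 Peptides are tested by liquid microdilution against strains such as Salmonella C610, E. faecalis ATCC 29212 and sensitive P. aeruginosa H188, with 5×10^5 CFU/mL in LB, overnight at 37 °C. Where a therapeutic index is given, it divides the 4 h complete-hemolysis concentration by the MIC.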

For a further data set, the system named is E. coli DC2. Type of data set: cell-based, Escherichia coli. Conditions: for Antibiotic activity (Table 11, ring analogs): E. coli DC2, unit from Table 10. The method, boiled down: as §6
Data set [2] deals with gram positive microorganisms. The data set is classed as cell-based.
Text: as §2, §3
(§7) The results from antimicrobial and hemolytic assays are combined to provide a “Therapeutic Index” (TI) for each peptide with respect to individual microorganisms. As reported herein, the TI is calculated as the hemolytic activity divided by the antimicrobial activity. The TI thus is a measure of specificity of the particular peptide for microbial membranes as opposed to human blood cell membranes. In the present studies, antimicrobial activities are reported as minimum inhibitory concentrations (MIC)—the lowest concentration of peptide (μg/ml) found to inhibit growth of the particular microbe. Hemolytic activity is reported as the concentration of peptide that effected complete lysis of blood cells after four hours. Thus, in the context of the present invention high TI values indicate microbial specificity and relative lack of toxicity.

The next data set has as its system E. faecalis. Type of data set: cell-based, Enterococcus faecalis. In outline: as §4
The subject of another data set is S. typhinurium C587. Type of data set: cell-based, Salmonella typhinurium. The method, boiled down:
as §4

The next data set has as its system S. typhinurium C610. Type of data set: cell-based, Salmonella typhinurium. The method, boiled down:
as §4

The next data set concerns S. epidermidis. Type of data set: cell-based, Staphylococcus epidermidis. In outline:
as §5

For another data set, the system named is C. Albicans. Type of data set: cell-based, Candida albicans. In outline:
as §5

For the next data set, the system named is human erythrocytes. Nature of the data set: Hemolytic activity. Type of data set: cell-based. The procedure: Serial dilutions of the peptides in saline were prepared in round bottom microtitre plates using 100 μL volumes. Red blood cells were diluted with saline to 1/25 packed volume of cells and 50 μL added to each well. Plates were incubated with rocking at 37° C., and the concentration required for complete lysis determined visually after 4 h.

The test system of the next data set is yeast. The data set is described as follows: Antibiotic activity, yeast. The conditions noted are these: average activity calculated from Table II. The data set is classed as cell-based.
Text: as §2, §3, §7

In data set [3] the test system is gram negative microorganisms. The data set is classed as cell-based. The conditions noted are these: average activity calculated from Table II.
Text: as §2, §3, §7

Consider 2 compounds from US6358921B1, “Antimicrobial peptide compositions and method” (priority 1996, dated 2002).

Where two headings read alike, the source gives them in different places.

Take `CC(C)C[C@@H]1NC(=O)[C@H](CCCCN)NC(=O)[C@H](C(C)C)NC(=O)[C@@H]2CCCN2C(=O)[C@@H](Cc2ccc(O)cc2)NC(=O)[C@H](CC(C)C)NC(=O)[C@H](CCCCN)NC(=O)[C@H](C(C)C)NC(=O)[C@H](CCCCN)NC(=O)[C@H](CC(C)C)NC(=O)[C@@H]2CCCN2C(=O)[C@@H](Cc2ccc(O)cc2)NC(=O)[C@H](C(C)C)NC(=O)[C@H](CCCCN)NC1=O` [GS14]: the “Minimum Inhibitory Concentration (activity)” value in the data set with S. aureus K147 is greater than 200 µg/mL; in the data set with S. aureus SAP0017 it was greater than 200 µg/mL; in the data set with E. coli UB1005 (UB1005), greater than 200 µg/mL; in the data set on B. subtilis it was greater than 200 µg/mL; in the data set with P. aeruginosa H188 (H188), greater than 200 µg/mL; with C. xeroses, 9 µg/mL. Besides, the “Minimum Inhibitory Concentration (activity)” value with P. aeruginosa H187 (H187) was greater than 200 µg/mL; with E. coli DC2 (DC2) it was greater than 200 µg/mL; in the data set on E. faecalis it was 1.5 µg/mL; in the data set on S. typhinurium C587 it was greater than 200 µg/mL; in the data set on S. typhinurium C610, greater than 200 µg/mL; in the data set with S. epidermidis, 200 µg/mL. Further, in the data set with C. Albicans, the “Minimum Inhibitory Concentration (activity)” value came to 150 µg/mL. Also, the “Antibiotic activity (Table 11, ring analogs)” value in the data set with E. coli SC9251 is listed as 400 μg/ml; in the data set on E. coli SC9252, 190 μg/ml; in the data set on E. coli UB1005, 400 μg/ml; in the data set with P. aeruginosa H188, 400 μg/ml; in the data set with P. aeruginosa H187, 400 μg/ml; in the data set with E. coli DC2, 190 μg/ml. In [1] (read-out: LPS binding affinity: peptide concentration to displace 50% of dansyl-polymyxin B from LPS, Tables 1, 4, 7), the IC50 came out at 3 µM. In addition, the MIC entry against Acholeplasma laidlawii was “less than 30 μg/ml”. Moreover, the “MIC against four of the gram positive microorganisms tested” value in data set [2] is greater than 200 µg/mL.

As for `CC(C)C[C@@H]1NC(=O)[C@H](CCCCN)NC(=O)[C@@H]2CCCN2C(=O)[C@@H](Cc2ccc(O)cc2)NC(=O)[C@H](CCCCN)NC(=O)[C@H](C(C)C)NC(=O)[C@H](CCCCN)NC(=O)[C@H](CC(C)C)NC(=O)[C@@H]2CCCN2C(=O)[C@@H](Cc2ccc(O)cc2)NC(=O)[C@H](C(C)C)NC(=O)[C@H](CCCCN)NC1=O` [GS12LV], the “Antibiotic activity (Table 11, ring analogs)” value worked out at 22 μg/ml in the data set with E. coli SC9251; 25 μg/ml with E. coli SC9252; 21 μg/ml in the data set on E. coli UB1005; 10 μg/ml in the data set on P. aeruginosa H188; 58 μg/ml with P. aeruginosa H187; 14 μg/ml in the data set on E. coli DC2. Also, in [1] (Table 10, read-out: LPS binding activity: peptide concentration to displace 50% of dansyl-polymyxin from LPS), the IC50 amounted to 33 µM. In the data set with human erythrocytes, this compound returned a Hemolytic activity of 92 µg/mL. In addition, the “Antibiotic activity, yeast” value with yeast is 50 µg/mL. Moreover, in data set [2] (average activity calculated from Table II), the “Antibiotic activity, gram-positive” value is 240 µg/mL. The “Antibiotic activity, gram-negative” value in data set [3] was 25 µg/mL.
